Source: US10525187B2, “Apparatus for removing protein-bound toxins from blood plasma” (Fresenius Medical Care Deutschland GmbH, priority 2012, dated 2020)

Biological target: bovine serum albumin (Bos taurus, UniProt P02769)
Assay: Dialysis module, HF field effect in the frequency range 1 to 170 MHz on separation of phenylacetic acid (Embodiment 2)
Format: in vitro ADME
Conditions: BSA 60 mg/ml, toxin 1 mmol/l
Experimental: A dialysis module was set up for this purpose in that conventional hemofiltration capillaries were cast as loops using silicone into a syringe receiving neck. An aqueous albumin solution was introduced into the respective module in the presence of the uremic toxins phenylacetic acid, p-hydroxyhippuric acid and indoxyl sulfate. This solution was filtered with the dialysis module using a syringe pump for 10 min. […] The electromagnetic field is incremented by means of a high-frequency voltage source over a period of 10 minutes from […] in steps of 1 MHz. […] The effect of the HF field on the bond between the proteins and the uremic toxins was able to be evaluated by a comparison of the uremic toxin concentration in the resulting filtrates.
The HF field was varied in subbands of 10 MHz in the frequency range 1-170 MHz and was compared with a control experiment without an HF field.
The quantitative determination of the phenylacetic acid was performed using HPLC.
The results of the experiments are collected in FIG. 9. […] The effect was particularly pronounced at 54.6% in the subband from 110 to 120 MHz.

Chain of bovine serum albumin (P02769 25-607): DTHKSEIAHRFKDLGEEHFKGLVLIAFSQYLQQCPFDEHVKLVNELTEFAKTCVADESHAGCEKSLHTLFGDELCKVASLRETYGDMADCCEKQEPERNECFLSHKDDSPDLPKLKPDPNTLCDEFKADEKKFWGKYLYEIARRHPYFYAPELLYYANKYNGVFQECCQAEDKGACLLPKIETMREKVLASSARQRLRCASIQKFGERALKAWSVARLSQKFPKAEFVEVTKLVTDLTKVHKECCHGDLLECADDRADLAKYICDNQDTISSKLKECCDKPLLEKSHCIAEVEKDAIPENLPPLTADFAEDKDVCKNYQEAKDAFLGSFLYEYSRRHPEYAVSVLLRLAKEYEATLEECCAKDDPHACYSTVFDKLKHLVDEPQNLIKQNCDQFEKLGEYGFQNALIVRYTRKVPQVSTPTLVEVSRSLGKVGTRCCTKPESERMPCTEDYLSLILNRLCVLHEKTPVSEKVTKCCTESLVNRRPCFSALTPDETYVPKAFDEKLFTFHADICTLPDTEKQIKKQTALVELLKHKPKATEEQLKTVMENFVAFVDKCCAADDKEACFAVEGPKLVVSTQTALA

O=C(O)Cc1ccccc1 [phenylacetic acid]
increase of separation rate under the influence of the HF field (HF field 1-170 MHz in subbands of 10 MHz vs control without HF field): at least 45.3%
increase of separation rate under the influence of the HF field (subband from 110 to 120 MHz vs control without HF field): 54.6%
